From patent publication US20050153930A1, “Inhibition of a novel calcium injury current that forms in nuerons during injury prevents neuronal cell death” (Robert J. DeLorenzo, priority 2000, published 2005) come the findings set out here.

Entries after “also recorded” stand apart in the source; their conditions may differ. Counter-ions that a name gives are not always drawn. Like-named read-outs stand apart in the source and are kept apart here.

Type in all cases: cell-based, rat
For experiment [1], the system named is hippocampal neurons in culture. Put plainly: Neuronal cell death / survival after excitotoxic glutamate, aging or chronic glutamate injury. To be noted: for neuronal cell death produced by excitotoxic glutamate exposure: acute excitotoxic injury, treatment after injury.
Experiment [2] has as its system Injury Induced Calcium Channel (IICC). As to the kind of experiment: Voltage clamp current/voltage relationship of the injury induced calcium current.
For experiment [3], the system named is hippocampal neurons in culture. As to the kind of experiment: Extended neuronal depolarization (END), membrane potential recording after excitotoxic glutamate exposure.
Experiment [4] deals with hippocampal neurons in culture. Put plainly: Intracellular calcium measurement (Indo-1 / Fura-FF) after excitotoxic glutamate exposure. The note with it: for prolonged elevation of intra cellular calcium / entry of extra cellular calcium following injury: after excitotoxic glutamate exposure.
The mark [5] stands for this setting: administered alone or in combination (without gadolinium) after the 10 minute glutamate exposure.
[6] abbreviates: applied in wash after 10 min 100 uM glutamate + 10 uM glycine.
[7] abbreviates: neurons in END after excitotoxic glutamate, voltage steps -90 to +60 mV.
The mark [8] stands for this setting: chronically administered during aging of neurons.
Where [9] appears, read: chronic exposure during numerous minor chronic glutamate injuries.

For dilauryl ascorbate, in experiment [1], the neuronal survival entry was “had no significant effect on neuronal survival”.
With `CCCCCCCCCCCCCCCC(=O)OC[C@H](O)[C@H]1OC(=O)C(O)=C1O` [ascorbyl palmitate], the neuronal survival entry in experiment [1] (setting [5]) is listed as “had no significant effect on neuronal survival”.
Take `C[C@H]1C[C@@H]2[C@H]([C@@H](O)C[C@@]3(C)[C@H]2CC[C@]3(O)C(=O)CO)[C@@]2(C)C=CC(=O)C=C12` [methlyprednisolone]: in experiment [1] (setting [5]), the neuronal survival entry is given as “had no significant effect on neuronal survival”.
For `[Cd]` [cadmium, reference compound], the “effect on IICC current (calcium injury current)” value in experiment [2] is recorded as “None of these calcium channel blockers had any effect”.
`COc1ccc(CCCOC(Cn2ccnc2)c2ccc(OC)cc2)cc1` (stereo not shown) [SKF-96365, reference compound]: the “reversal of END” value in experiment [3] (setting [6]) was “had no effect on reversing END”.
As to `N[C@@H](CCCP(=O)(O)O)C(=O)O` [APV, reference compound], the “effect on IICC current (calcium injury current)” value in experiment [2] (setting [7]) was “None of the glutamate receptor antagonists had any effect”.
`C[C@@H]1C[C@H]2[C@@H]3CCC4=CC(=O)C=C[C@]4(C)C3=CC[C@]2(C)[C@H]1C(=O)CN1CCN(c2cc(N3CCCC3)nc(N3CCCC3)n2)CC1` [tirilazad mesylate]: the neuronal survival result in experiment [1] (setting [5]) is “had no significant effect on neuronal survival”.
Consider `[Cl][Gd]([Cl])[Cl]` [gadolinium, gadolinium chloride], for which the “reversal of END” value is on record as “blocked by gadolinium; also recorded: effective in reversing END” in experiment [3] (setting [6]) and “as effective as zero calcium in reversing END; also recorded: able to reverse END as well as zero calcium” in experiment [3] (applied in wash after 10 min 100 uM glutamate + 10 uM glycine, listed as Gadolinium). Besides, the “development of END” value was “blocked calcium entry and accumulation and the development of END” in experiment [3] (chronic administration, chronic injury model (multiple minor glutamate exposures)); “blocked calcium entry and the development of END” in experiment [3] (setting [8]). The “time for END to return to baseline levels” value in experiment [3] (gadolinium in wash after excitotoxic glutamate, controls manifested END for greater than one hour) was 30 to 40 min. Besides, the entries for the “prolonged elevation of intra cellular calcium / entry of extra cellular calcium following injury” value in experiment [4] and in experiment [4] (listed as Gadolinium) were “able to block the extra cellular calcium entering from the bathing solution; also recorded: blocked by gadolinium” and “effective in reversing the prolonged elevation of intra cellular calcium”, respectively. For the same molecule, in experiment [4] (chronic administration, chronic injury model), the “calcium entry and accumulation” value is “blocked calcium entry and accumulation”. Besides, the calcium entry result in experiment [4] (setting [8]) is reported as “blocked calcium entry”. Besides, in experiment [4] (gadolinium in wash after excitotoxic glutamate, controls sustained at approximately 1-2 uM (indo-1)), the “time for intra cellular calcium to return to baseline levels” value is 30 to 40 min. Moreover, the “neuronal cell death produced by excitotoxic glutamate exposure” value in experiment [1] is “effective in reversing”; in experiment [1] (listed as Gadolinium), “prevention of delayed neuronal cell death”. For the same molecule, the “life span of neurons / cell death associated with aging” value in experiment [1] (administered chronically to neurons as they aged) is on record as “effective in significantly increasing the life span of the neurons; also recorded: prolonged the life of the neurons”. In addition, the “neuronal cell death from chronic injury” value in experiment [1] (setting [9]) is “prevented the gradual production of neuronal cell death”. Besides, in experiment [1] (excitotoxic injury in the presence of gadolinium), the neuronal cell death result is given as “did not die”. Further, the “formation of IICCs” value in experiment [2] (setting [9]) is listed as “blocked the formation of IICCs”. Further, the “development of IICCs” value in experiment [2] (given chronically to aging neurons) was “blocked the development of IICCs”. The “effect on IICC current (calcium injury current)” value in experiment [2] (setting [7]) was “inhibited the IICC current”; in experiment [2] (neurons in END after excitotoxic glutamate, voltage steps -90 to +60 mV, listed as Gadolinium) it was “effectively inhibited the IICC current”; in experiment [2] (neurons in END after excitotoxic glutamate, voltage steps -90 to +60 mV, listed as gadolinium chloride), “returns the neuron from END to baseline (control) conditions”.
Turning to heparin, the neuronal survival result in experiment [1] (setting [5]) is “had no significant effect on neuronal survival”.
As for `CC(C)COCC(CN(Cc1ccccc1)c1ccccc1)N1CCCC1` (stereo not shown) [Bepridil, reference compound], the “reversal of END” value in experiment [3] (setting [6]) is on record as “did not block END; also recorded: had no effect in reversing END”. The “effect on IICC current (calcium injury current)” value in experiment [2] was “had no effect on blocking the observed calcium injury current”.
For the molecule `NS(=O)(=O)c1cccc2c1c([N+](=O)[O-])cc1nc(O)c(O)nc12` [NBQX, reference compound], the “effect on IICC current (calcium injury current)” value in experiment [2] (setting [7]) is listed as “None of the glutamate receptor antagonists had any effect”.
Regarding `[Cl-].[Cl-].[Zn+2]` [zinc chloride, reference compound], the “reversal of END” value in experiment [3] (5 uM, after excitotoxic glutamate exposure) is “did not prevent END”; in experiment [3] (5 uM, after excitotoxic glutamate exposure, listed as zinc) it was “had no effect in reversing END”.
With `N#Cc1cc2[nH]c(=O)c(=O)[nH]c2cc1[N+](=O)[O-]` [CNQX, reference compound], the “effect on IICC current (calcium injury current)” value in experiment [2] (setting [7]) is “None of the glutamate receptor antagonists had any effect”.
For `CCN(CC)Cc1nccn1-c1ccc([N+](=O)[O-])cc1C(=O)c1ccccc1Cl` [nizofenone], the neuronal survival entry in experiment [1] (setting [5]) is on record as “had no significant effect on neuronal survival”.
The same measure, in the same setting: then `O=C(O)CCCCC1CCSS1` (stereo not drawn) [alpha-lipoate, 1,2-dithiolane-3-pentanoic acid], with “had no significant effect on neuronal survival”; and `CC1=C(/C=C/C(C)=C/C=C/C(C)=C/C=C/C=C(C)/C=C/C=C(C)/C=C/C2=C(C)CCCC2(C)C)C(C)(C)CCC1` [beta-carotene], with “had no significant effect on neuronal survival”.
Regarding `Cc1c(C)c2c(c(C)c1O)CC[C@@](C)(CCC[C@H](C)CCC[C@H](C)CCCC(C)C)O2` [vitamin E, alpha-tocopherol], in experiment [1] (setting [5]), the neuronal survival entry is recorded as “had no significant effect on neuronal survival”.
For `O=c1ccc2ccccc2o1` [coumarin], the neuronal survival entry in experiment [1] (setting [5]) was “had no significant effect on neuronal survival”.
Turning to `O=C1O[C@H]([C@@H](O)CO)C(O)=C1O` [vitamin C, ascorbic acid], in experiment [1], the neuronal survival entry is “had no significant effect on neuronal survival”.
